Measured values taken from ChEMBL document CHEMBL1126505, “Syntheses of Cyclopentane, Cyclohexene and Olefin Oxazoles as Thromboxane A2/Endoperoxide Receptor Antagonists” (Bioorg Med Chem Lett, 1993).

Key:
Homo sapiens = species: Homo sapiens; assay: Tested for the ability to inhibit arachidonic acid induced platelet aggregation in human platelet rich plasma; format: functional; conditions: read-out: I50
Thromboxane A2 receptor = target: T1, Thromboxane A2 receptor (Homo sapiens, UniProt P21731); assay: Binding affinity was determined for Thromboxane A2 receptor in human platelet membrane using [3H]SQ-29,548 radioligand; format: cell membranes
T1 sequence (P21731 whole entry): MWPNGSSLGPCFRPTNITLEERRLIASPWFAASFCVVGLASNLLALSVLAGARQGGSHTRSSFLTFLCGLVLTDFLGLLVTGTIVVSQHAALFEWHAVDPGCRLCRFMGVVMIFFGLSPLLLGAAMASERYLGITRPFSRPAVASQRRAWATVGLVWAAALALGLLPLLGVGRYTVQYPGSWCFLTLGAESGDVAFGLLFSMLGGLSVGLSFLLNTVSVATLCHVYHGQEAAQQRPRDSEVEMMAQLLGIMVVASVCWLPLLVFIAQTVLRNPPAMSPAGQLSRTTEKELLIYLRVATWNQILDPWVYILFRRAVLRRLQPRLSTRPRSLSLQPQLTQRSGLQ

SMILES	IC50 (Homo sapiens) [nM]	Kd (Thromboxane A2 receptor) [nM]
C/C(Cc1ccccc1CCC(=O)O)=C(\C)c1nc(C(=O)NCCc2ccc(Cl)cc2)co1	235	37.3
O=C(O)CCc1ccccc1C[C@@H]1CCC[C@H]1c1nc(C(=O)NCc2ccc(Cl)cc2)co1	338	0.5
O=C(O)CCc1ccccc1C[C@H]1CCC[C@@H]1c1nc(C(=O)NCc2ccc(Cl)cc2)co1	5160	3.3
O=C(O)CCc1ccccc1CC1=C(c2nc(C(=O)NCCc3ccc(Cl)cc3)co2)CCCC1	194	63.5

Now those with a lower IC50 (Homo sapiens), led by results:

IC50 (Homo sapiens) [nM]	Kd (Thromboxane A2 receptor) [nM]	SMILES
15	4.3	O=C(O)CCc1ccccc1CC1CCC[C@H]1c1nc(C(=O)NCCCCC2CCCCC2)co1 (single isomer, unassigned; (-))
107	23.8	O=C(O)CCc1ccccc1C[C@@H]1CCC[C@@H]1c1nc(C(=O)NCCCCC2CCCCC2)co1
